# Experimental data published in PMC4955518 (Bioorganic & medicinal chemistry, 2016).
# Where a name gives a salt, the structure may show the parent alone. Read-outs that look alike come from different tables or passages of the source.
# Tests used:
# NTR2 [1] = target: T1, NTR2 (Rattus norvegicus, UniProt Q63384); conditions: read-out: NTR2 EC50 (off-target); cited from earlier work
# T1 sequence (Q63384 1-416): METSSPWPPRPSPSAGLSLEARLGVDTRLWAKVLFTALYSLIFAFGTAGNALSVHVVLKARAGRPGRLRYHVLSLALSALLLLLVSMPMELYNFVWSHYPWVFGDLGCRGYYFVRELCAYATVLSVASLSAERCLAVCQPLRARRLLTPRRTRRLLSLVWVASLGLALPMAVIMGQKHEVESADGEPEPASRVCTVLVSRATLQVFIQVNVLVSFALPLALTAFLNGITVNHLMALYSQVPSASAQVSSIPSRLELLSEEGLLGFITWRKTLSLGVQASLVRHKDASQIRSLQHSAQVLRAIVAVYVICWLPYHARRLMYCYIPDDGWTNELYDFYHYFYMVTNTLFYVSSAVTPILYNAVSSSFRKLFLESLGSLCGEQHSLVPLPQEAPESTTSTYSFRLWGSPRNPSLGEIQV
# NTR2 receptor = conditions: read-out: NTR2 Ki (off-target); cited from earlier work
# human apelin receptor = target: T2, human apelin receptor (Homo sapiens, UniProt P35414); assay: Radioligand displacement, [125I]-apelin-13, CHO-K1 cell membrane homogenates; type: binding
# T2 sequence (P35414 1-380): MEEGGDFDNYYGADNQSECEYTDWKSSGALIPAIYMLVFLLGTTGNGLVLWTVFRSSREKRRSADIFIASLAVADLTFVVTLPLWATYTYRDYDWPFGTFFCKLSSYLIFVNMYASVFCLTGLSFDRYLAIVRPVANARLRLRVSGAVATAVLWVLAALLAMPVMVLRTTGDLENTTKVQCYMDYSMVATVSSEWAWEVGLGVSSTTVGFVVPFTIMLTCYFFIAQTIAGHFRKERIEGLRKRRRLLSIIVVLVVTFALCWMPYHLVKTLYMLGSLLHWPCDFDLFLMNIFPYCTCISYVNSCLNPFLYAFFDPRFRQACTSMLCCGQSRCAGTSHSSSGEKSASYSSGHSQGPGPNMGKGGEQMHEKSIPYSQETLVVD
# human APJ = target: T3, human APJ (Homo sapiens, UniProt P35414); assay: Calcium mobilization assay for APJ; type: cell-based
# T3 sequence (P35414 1-380): T2 sequence (P35414 1-380)
# NTR1 = NTR1 (Rattus norvegicus, UniProt P20789); assay: Calcium mobilization assay for NTR1; type: cell-based
# Sequence of NTR1 (P20789 whole entry): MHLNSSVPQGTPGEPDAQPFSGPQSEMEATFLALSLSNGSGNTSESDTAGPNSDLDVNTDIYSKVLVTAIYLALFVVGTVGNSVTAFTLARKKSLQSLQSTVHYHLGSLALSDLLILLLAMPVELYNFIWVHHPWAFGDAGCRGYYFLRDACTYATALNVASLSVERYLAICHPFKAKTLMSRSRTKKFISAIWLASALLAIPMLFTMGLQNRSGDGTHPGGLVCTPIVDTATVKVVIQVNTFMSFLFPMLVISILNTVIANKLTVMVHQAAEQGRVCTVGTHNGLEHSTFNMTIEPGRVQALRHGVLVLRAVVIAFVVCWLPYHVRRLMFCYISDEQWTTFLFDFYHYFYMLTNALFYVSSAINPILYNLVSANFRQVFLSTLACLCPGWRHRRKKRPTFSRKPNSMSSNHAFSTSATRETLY
# NTR2 [2] = target: T1, NTR2; assay: Calcium mobilization assay for NTR2; type: cell-based
Structure (SMILES),APJ agonist activity (human APJ; calcium mobilization),further results
COc1cccc(OC)c1-c1cc(C(=O)N[C@H](C(=O)O)C2CCCCC2)nn1-c1ccc(F)cc1 [Compound 1],,"EC50 (NTR2 [1]): 0.271 µM; Ki (NTR2 receptor): 0.622 µM; displacement of 125I radiolabeled pyr-apelin-13 (human apelin receptor): 100%; mode of binding at APJ (human apelin receptor; radioligand displacement studies): competitive orthosteric ligand of APJ; EC50 (human APJ; read-out: functional EC50 at APJ, calcium mobilization): 21.5 ± 5 µM"
"COc1cccc(OC)c1-c1cc(C(=O)N[C@H](C(=O)O)C2CCCCC2)n(-c2ccc(F)cc2)n1 [Compound 1a, (S)-2-Cyclohexyl-2-(3-(2,6-dimethoxyphenyl)-1-(4-fluorophenyl)-1H-pyrazole-5-carboxamido)acetic acid]",significantly reduce activity,
"COc1cccc(OC)c1-c1cc(C(=O)N[C@@H](C(=O)O)C2CCCCC2)nn1-c1ccc(F)cc1 [Compound 3, (R)-2-Cyclohexyl-2-(5-(2,6-dimethoxyphenyl)-1-(4-fluorophenyl)-1H-pyrazole-3-carboxamido)acetic acid]",significantly reduce activity,
"COC(=O)[C@@H](NC(=O)c1cc(-c2c(OC)cccc2OC)n(-c2ccc(F)cc2)n1)C1CCCCC1 [Compound 4, (S)-Methyl 2-cyclohexyl-2-(5-(2,6-dimethoxyphenyl)-1-(4-fluorophenyl)-1H-pyrazole-3-carboxamido)acetate]",did not possess activity,
"COc1cccc(OC)c1-c1cc(C(=O)NCC2CCCCC2)nn1-c1ccc(F)cc1 [Compound 5, N-(Cyclohexylmethyl)-5-(2,6-dimethoxyphenyl)-1-(4-fluorophenyl)-1H-pyrazole-3-carboxamide]",did not possess activity,
"COc1cccc(OC)c1-c1cc(C(=O)N[C@H](C(N)=O)C2CCCCC2)nn1-c1ccc(F)cc1 [Compound 6, (S)-N-(2-Amino-1-cyclohexyl-2-oxoethyl)-5-(2,6-dimethoxyphenyl)-1-(4-fluorophenyl)-1H-pyrazole-3-carboxamide]",devoid of activity,
"COc1cccc(OC)c1-c1cc(C(=O)N[C@H](C(=O)N(C)C)C2CCCCC2)nn1-c1ccc(F)cc1 [Compound 7, (S)-N-(1-Cyclohexyl-2-(dimethylamino)-2-oxoethyl)-5-(2,6-dimethoxyphenyl)-1-(4-fluorophenyl)-1H-pyrazole-3-carboxamide]",devoid of activity,
"COc1cccc(OC)c1-c1cc(C(=O)N[C@H](C(=O)NCc2ccccc2)C2CCCCC2)nn1-c1ccc(F)cc1 [Compound 8, (S)-N-(2-(Benzylamino)-1-cyclohexyl-2-oxoethyl)-5-(2,6-dimethoxyphenyl)-1-(4-fluorophenyl)-1H-pyrazole-3-carboxamide]",devoid of activity,
"COc1cccc(OC)c1-c1cc(C(=O)N[C@H](C(=O)NO)C2CCCCC2)nn1-c1ccc(F)cc1 [Compound 9, (S)-N-(1-Cyclohexyl-2-(hydroxyamino)-2-oxoethyl)-5-(2,6-dimethoxyphenyl)-1-(4-fluorophenyl)-1H-pyrazole-3-carboxamide]",not tolerated,
"COC(=O)CNC(=O)[C@@H](NC(=O)c1cc(-c2c(OC)cccc2OC)n(-c2ccc(F)cc2)n1)C1CCCCC1 [Compound 10, (S)-Methyl 2-(2-cyclohexyl-2-(5-(2,6-dimethoxyphenyl)-1-(4-fluorophenyl)-1H-pyrazole-3-carboxamido)acetamido)acetate]",inactive,
"COc1cccc(OC)c1-c1cc(C(=O)N[C@H](C(=O)NCC(=O)O)C2CCCCC2)nn1-c1ccc(F)cc1 [Compound 11, (S)-2-(2-Cyclohexyl-2-(5-(2,6-dimethoxyphenyl)-1-(4-fluorophenyl)-1H-pyrazole-3-carboxamido)acetamido)acetic acid]",inactive,
"O=C(N[C@H](C(=O)O)C1CCCCC1)c1cc(-c2c(O)cccc2O)n(-c2ccc(F)cc2)n1 [Compound 12, (S)-2-Cyclohexyl-2-(5-(2,6-dihydroxyphenyl)-1-(4-fluorophenyl)-1H-pyrazole-3-carboxamido)acetic acid]",complete loss of agonist potency,
"COc1cccc(O)c1-c1cc(C(=O)N[C@H](C(=O)O)C2CCCCC2)nn1-c1ccc(F)cc1 [Compound 13, 2-Cyclohexyl-2-(1-(4-fluorophenyl)-5-(2-hydroxy-6-methoxyphenyl)-1H-pyrazole-3-carboxamido)acetic acid]",loss of potency,
"Cc1cc(C(=O)N[C@H](C(=O)O)C2CCCCC2)nn1-c1ccc(F)cc1 [Compound 15, (S)-2-Cyclohexyl-2-(1-(4-fluorophenyl)-5-methyl-1H-pyrazole-3-carboxamido)acetic acid]",inactive,
"COc1cccc(OC)c1-c1cc(C(=O)N[C@@H](CCC(N)=O)C(=O)O)nn1-c1ccc(F)cc1 [Compound 16, (S)-5-Amino-2-(5-(2,6-dimethoxyphenyl)-1-(4-fluorophenyl)-1H-pyrazole-3-carboxamido)-5-oxopentanoic acid]",not tolerated,
"COc1cccc(OC)c1-c1cc(C(=O)N[C@@H](CCCCNC(=O)OC(C)(C)C)C(=O)O)nn1-c1ccc(F)cc1 [Compound 17, (S)-6-((Tert-butoxycarbonyl)amino)-2-(5-(2,6-dimethoxyphenyl)-1-(4-fluorophenyl)-1H-pyrazole-3-carboxamido)hexanoic acid]",not tolerated,
"COc1cccc(OC)c1-c1cc(C(=O)N[C@@H](CCCCN)C(=O)O)nn1-c1ccc(F)cc1 [Compound 18, (S)-6-Amino-2-(5-(2,6-dimethoxyphenyl)-1-(4-fluorophenyl)-1H-pyrazole-3-carboxamido)hexanoic acid trifluoroacetate]",not tolerated,
"COc1cccc(OC)c1-c1cc(C(=O)N[C@@H](CC(C)C)C(=O)O)nn1-c1ccc(F)cc1 [Compound 19, (S)-2-(5-(2,6-Dimethoxyphenyl)-1-(4-fluorophenyl)-1H-pyrazole-3-carboxamido)-4-methylpentanoic acid]",did not retain APJ potency,
"COc1cccc(OC)c1-c1cc(C(=O)N[C@@H](CC(=O)O)C2CCCCC2)nn1-c1ccc(F)cc1 [Compound 21, (S)-3-Cyclohexyl-3-(5-(2,6-dimethoxyphenyl)-1-(4-fluorophenyl)-1H-pyrazole-3-carboxamido)propanoic acid]",,NTR1 activity as agonist or antagonist (NTR1): Neither compound had any significant NTR1 activity; Ki (human apelin receptor): 1.4 ± 0.2 µM; EC50 (NTR2 [2]): ~0.345 µM; NTR2 functional behaviour (NTR2 [2]): partial agonists at NTR2; Emax (NTR2 [2]; read-out: NTR2 Emax): 57%; EC50 (human APJ): 9.9 ± 2.6 µM
"COc1cccc(OC)c1-c1cc(C(=O)N[C@@H](CCC2CCCCC2)CC(=O)O)nn1-c1ccc(F)cc1 [Compound 22, (S)-5-Cyclohexyl-3-(5-(2,6-dimethoxyphenyl)-1-(4-fluorophenyl)-1H-pyrazole-3-carboxamido)pentanoic acid]",full agonist,NTR1 activity as agonist or antagonist (NTR1): Neither compound had any significant NTR1 activity; NTR2 functional behaviour (NTR2 [2]): partial agonists at NTR2
"CCCCc1nc(Cl)c(CO)n1Cc1ccc(-c2ccccc2-c2nn[nH]n2)cc1 [losartan, reference compound]",none of these analogs possessed agonist activity,
"CCCCC(=O)N(Cc1ccc(-c2ccccc2-c2nnn[nH]2)cc1)[C@H](C(=O)O)C(C)C [valsartan, reference compound]",none of these analogs possessed agonist activity,
